Structures can show the parent of a compound that is named as a salt.
Experiments:
E. Histolytica = assay: Oral activity against experimental cecal E. Histolytica infections in rats; type: in vivo, male Royal Hart rats; details: for A.D.I. (average degree of infection): scale 0 to 4, controls averaged 2.2
From the text: Table VII and Table VIII set forth in vivo test results which illustrate the antiprotozoal activity of Antibiotic G-418. The host for the tests were recently weaned male Royal Hart rats (3-4 weeks old) weighing about 50-70 g. The test procedure is a modification of one described by R. J. Schnitzer on pages 355-443 in Experimental Chemotherapy, Vol. 1, Academic Press, New York (1963).
*A.D.I. -- defined as the average degree of infection based upon gross
observations of pathological changes in the cecum and microscopic
observations of the number of amoebae found. These observations are
recorded on a scale of from zero to four, zero representing a
substantially normal cecum. Untreated but infected controls range from
about two to four. In the data set forth the controls averaged 2.2.

[1] = test system: Bacillus subtilis A.T.C.C. 6633; assay: standard disc plate microbiological assay; type: cell-based; details: against the standard antibiotic base (1000 mcg/mg)
From the text: The assay is a standard disc plate assay using Difco Antibiotic Medium No. 5 and Bacillus subtilis A.T.C.C. 6633 as the test organism. The physical conditions of the test are substantially those described for neomycin (Grove and Randall), Assay Methods of Antibiotics published by Medical Encyclopedia Incorporated (1955). The assay is run against a standard preparation of Antibiotic G-418 having a defined potency of 1000 mcg/mg. […] The standard antibiotic sulfate salt assays about 750 mcg/mg. against the standard antibiotic base.

NC[C@@H]1O[C@H](O[C@H]2[C@@H](O)[C@H](O[C@@H]3[C@@H](O)[C@H](N)C[C@H](N)[C@H]3O[C@H]3O[C@H](CO)[C@@H](O)[C@H](O)[C@H]3N)O[C@@H]2CO)[C@H](N)[C@@H](O)[C@@H]1O [Paromomycin]
Parasitological Cure Negative/Total (E. Histolytica; oral 3.5 mg/kg/day, 3 days): 1/7 | A.D.I. (average degree of infection) (E. Histolytica; oral 3.5 mg/kg/day, 3 days): 1.9 | Parasitological Cure Negative/Total (E. Histolytica; oral 3.5 mg/kg/day, 6 days): 1/6 | A.D.I. (average degree of infection) (E. Histolytica; oral 3.5 mg/kg/day, 6 days): 1.5 | Parasitological Cure Negative/Total (E. Histolytica; oral 6.5 mg/kg/day, 1 day): 0/4 | A.D.I. (average degree of infection) (E. Histolytica; oral 6.5 mg/kg/day, 1 day): 1.0 | Parasitological Cure Negative/Total (E. Histolytica; oral 6.5 mg/kg/day, 3 days): 1/5 | A.D.I. (average degree of infection) (E. Histolytica; oral 6.5 mg/kg/day, 3 days): 1.0 | Parasitological Cure Negative/Total (E. Histolytica; oral 6.5 mg/kg/day, 6 days): 2/4 | A.D.I. (average degree of infection) (E. Histolytica; oral 6.5 mg/kg/day, 6 days): 1.3 | Parasitological Cure Negative/Total (E. Histolytica; oral 10 mg/kg/day, 1 day): 0/7 | A.D.I. (average degree of infection) (E. Histolytica; oral 10 mg/kg/day, 1 day): 2.1 | Parasitological Cure Negative/Total (E. Histolytica; oral 10 mg/kg/day, 3 days): 2/6 | A.D.I. (average degree of infection) (E. Histolytica; oral 10 mg/kg/day, 3 days): 1.0 | Parasitological Cure Negative/Total (E. Histolytica; oral 12 mg/kg/day, 6 days): 4/8 | A.D.I. (average degree of infection) (E. Histolytica; oral 12 mg/kg/day, 6 days): 0.8 | Parasitological Cure Negative/Total (E. Histolytica; oral 25 mg/kg/day, 6 days): 6/7 | A.D.I. (average degree of infection) (E. Histolytica; oral 25 mg/kg/day, 6 days): 0

CN[C@@H]1[C@@H](O)[C@@H](O[C@@H]2[C@@H](O)[C@H](O[C@H]3O[C@H]([C@@H](C)O)[C@@H](O)[C@H](O)[C@H]3N)[C@@H](N)C[C@H]2N)OC[C@]1(C)O [standard antibiotic sulfate salt]
potency of standard antibiotic sulfate salt [1]: about 750 mcg/mg
